US20220127297A1, “Novel Antibacterial 3"-Derivatives Of 4,6-Disubstituted 2,5-Dideoxystreptamine Aminoglycoside Antibiotics” (AGILeBiotics B.V., priority 2018, published 2022)
Converted amounts (≈) assume the structure as drawn.

Tested on: E. coli (AAC(6′)Ie-APH(2″)Ia)
Experiment: MIC 50, broth micro-dilution, E. coli expressing AAC(6′)Ie-APH(2″)Ia
Format: cell-based, Escherichia coli
Protocol: Plasmid transformation. Approximately 500 ng of the pET-9b(+) (Cat. No. 69432-3, Merck), pAT21-1 (provided by Prof. Dr. Patrice Courvalin, M.D., Pasteur Institute, France; prepared according to Trieu-Cuot et. al, Mol. Gen. Genet. 198(2), 348 (1985)), pBluescript::AAC(6′)-Ie/APH(2″)-Ia (provided by Prof. Dr. Sergei Vakulenko, M.D., University of Notre Dame, Ind., USA; prepared according to S. B. Vakulenko et. al., J. Biol. Chem. 287 (52), 43262 (2012)), pBlue_lpp_aacC3_rrnC and pSET152 (Cat. No. PVT3395, Life Science Market; prepared according to Bierman et al., Gene 116 (1), 43 (1992)) plasmids, encoding APH(3′)-Ia (SEQ ID NO:2), APH(3′)-IIIa (SEQ ID NO:3), AAC(6′)Ie-APH(2″)-Ia (SEQ ID NO:4), AAC(3)-III (SEQ ID NO:1), and AAC(3)-IV (SEQ ID NO:5) respectively, were individually incubated in a vial of competent cells for 15 min on ice. The cells were subsequently heated to 42° C. for 90 s, and cooled on ice for 1 min. After addition of 900 μL LB, the cells were incubated for 1 h at 37° C. and 200 rpm. Cells were plated on LB-agar supplemented with 50 μg/mL KanaA and incubated for 18 h at 37° C. The next day, a single colony was inoculated in 5 mL LB supplemented with 50 μg/mL and grown for 18 h at 37° C. and 200 rpm. A 200 μL sample of each culture was diluted with 200 μL of 40% v/v glycerol in water, and stored at −80° C. The plasmid was purified from the remaining culture using the Plasmid Miniprep kit. Plasmid DNA was investigated by Eurofins Genomics (Germany) to confirm the identity of the aminoglycoside resistance genes.
3.1 Against E. coli Strains
Tested reference compounds. Amikacin sulfate (Cat. No. 01693, Chem-Impex), Gentamicin sulfate (Cat. No. G4918, Sigma Aldrich).
Microbial strains. E. coli ATCC 25922, E. coli ATCC 25922/pET-9b(+), E. coli ATCC 25922/pAT21-1, E. coli ATCC 25922/pBluescript::AAC(6′)-Ie/APH(2″)-Ia, E. coli ATCC 25922/pBlue_lpp_aacC3_rrnC, E. coli ATCC 25922/pSET152.
Culture media and equipment. BBL™ Mueller Hinton Broth 2 (Lot. BCBW1143, Cat. No. 70192, Sigma); Kanamycin A (Cat. No. A1493, AppliChem); 96-well deep well plate, 1 mL (Cat. No. 0030506.200, Eppendorf); Plate lids (Cat. No. 0030131.525, Eppendorf); 96-well plate, F-bottom (Cat. No. 781602, Brand; Incubator, Infors Multitron Pro); Laminar flow (Heraeus KS12); UV/VIS meter (Eppendorf BioPhotometer Plus); Platereader (Tecan Sunrise).
Compound preparation. Compounds were prepared in MH2 media at a concentration of 5 mM and stored at 4° C. For testing, solutions of 128 μM were prepared in MH2. Out of these working solutions, 400 μL was transferred to wells in the first column of 96-well deep well plates. Each compound was transferred in triplicate. Plates were previously filled with 200 μL of MH2 media in all wells except for the wells in the first column. After compound and antibiotic addition, the compounds were serial two-fold diluted by transferring 200 μL from the first to the second column, then from the second to the third column and so on. Finally, 200 μL was removed from the last column.
Inoculum preparation. Microorganisms used were all revived from 20% glycerol (40% v/v glycerol in water was diluted with MH2) storage at −80° C. by inoculating them in 5 mL MH2. inoculums of E. coli containing a plasmid were selected for by adding 50 μg/mL KanaA. The Inoculums were grown to an optical density (measured by UV/Vis spectroscopy) of 0.6-0.8 at 600 nm. Out of these suspensions, actual inoculums were prepared by diluting them to an optical density (OD) of 0.1 in MH2 media. From these inoculums, 200 μL was transferred to each well, resulting in a final compound concentration range of 64 μM-31.3 nM. All plates were incubated at 900 rpm and 70% rH for 18 h at 37° C.
MIC determination. After 18 h of growth, 200 μL was transferred to a 96-well F-bottom plate. The optical density was determined by a plate reader at 600 nm, with 10 s shaking before reading. Triplicate measurements were averaged, and a growth curve was plotted in Microsoft Excel. […]

[1] = Escherichia coli, ATCC25922, ATCC25922 harboring plasmid encoding AAC(6′)Ie-APH(2″)Ia
[2] = ATCC25922 harboring plasmid encoding AAC(6′)Ie-APH(2″)Ia

Row | SMILES | MIC50 [1] [µM] | MIC50 [2] [µM]
1 | CC(C)(C)CCNC(=N)NC1[C@@H](O)C(OC2[C@@H](F)[C@H](O[C@H]3OC(CN)[C@@H](O)CC3N)C(N)C[C@H]2NC(=O)[C@@H](O)CCN)O[C@H](CO)[C@H]1O (stereo partly shown) [ABX5025, Tobra-AHB-F-Gua 2-tBu-ethyl] | 0.5 (≈ 0.348 µg/mL) | –
2 | N=C(NC[C@@H]1CNCCO1)NC1[C@@H](O)C(OC2[C@@H](F)[C@H](O[C@H]3OC(CN)[C@@H](O)CC3N)C(N)C[C@H]2NC(=O)[C@@H](O)CCN)O[C@H](CO)[C@H]1O (stereo partly drawn) [ABX5040, Tobra-AHB-F-Gua (S) morpholin-2-yl methyl] | 0.25 (≈ 0.178 µg/mL) | –
3 | C[C@@H](N)CCNC(=N)NC1[C@@H](O)C(OC2[C@@H](F)[C@H](O[C@H]3OC(CN)[C@@H](O)CC3N)C(N)C[C@H]2NC(=O)[C@@H](O)CCN)O[C@H](CO)[C@H]1O (stereo partly drawn) [ABX5047, Tobra-AHB-F-Gua (R) 3-amino-butyl] | 0.25 (≈ 0.171 µg/mL) | –
4 | N=C(NCCCO)NC1[C@@H](O)C(OC2[C@@H](F)[C@H](O[C@H]3OC(CN)[C@@H](O)CC3N)C(N)C[C@H]2NC(=O)[C@@H](O)CCN)O[C@H](CO)[C@H]1O (stereo partly shown) [ABX5041, Tobra-AHB-F-Gua 3-hydroxy-propyl] | 0.5 (≈ 0.335 µg/mL) | –
5 | N=C(NCC1CCCO1)NC1[C@@H](O)C(OC2[C@@H](F)[C@H](O[C@H]3OC(CN)[C@@H](O)CC3N)C(N)C[C@H]2NC(=O)[C@@H](O)CCN)O[C@H](CO)[C@H]1O (stereo partly shown) [ABX5046, Tobra-AHB-F-Gua tetrahydrofuran-2-yl methyl] | 0.5 (≈ 0.348 µg/mL) | –
6 | NCC[C@H](O)C(=O)N[C@@H]1C[C@H](N)[C@@H](O[C@H]2O[C@H](CN)[C@@H](O)[C@@H](O)[C@H]2O)[C@H](O)[C@H]1O[C@H]1O[C@H](CO)[C@@H](O)[C@H](N)[C@H]1O [ABX3002, 3′Epi-KanaA-AHB] | – | 16 (≈ 9.37 µg/mL)
7 | N=C(NCCN)NC1C(O)[C@@H](CO)OC(OC2C(F)[C@H](O[C@H]3OC(CN)[C@@H](O)CC3N)C(N)C[C@H]2NC(=O)[C@@H](O)CCN)[C@@H]1O (stereo partly shown) [ABX5020, Tobra-AHB-F-Gua-2-amino-ethyl] | 0.5 (≈ 0.328 µg/mL) | –
8 | N=C(N)N[C@@H]1[C@@H](O)[C@@H](O[C@@H]2[C@@H](O)[C@H](O[C@H]3O[C@H](CN)[C@@H](O)[C@@H](O)[C@H]3N)[C@@H](N)C[C@H]2NC(=O)[C@@H](O)CCN)O[C@H](CO)[C@H]1O [ABX4005, 3′Epi-KanaB-AHB-Gua] | – | 8 (≈ 5.01 µg/mL)
9 | NCC[C@H](O)C(=O)N[C@@H]1CC(N)[C@@H](O[C@H]2OC(CN)[C@@H](O)CC2N)[C@H](O)C1OC1O[C@H](CO)[C@@H](O)C(N)[C@H]1O (stereo partly shown) [ABX5004, Tobra-AHB] | – | 4 (≈ 2.27 µg/mL)
10 | NCC[C@H](O)C(=O)N[C@@H]1CC(N)[C@@H](O[C@H]2OC(CN)[C@@H](O)CC2N)[C@H](F)C1OC1O[C@H](CO)[C@@H](O)C(N)[C@H]1O (stereo partly shown) [ABX5024, Tobra-AHB-F] | – | 1 (≈ 0.571 µg/mL)
11 | N=C(NC[C@H]1CNCCO1)NC1[C@@H](O)C(OC2[C@@H](F)[C@H](O[C@H]3OC(CN)[C@@H](O)CC3N)C(N)C[C@H]2NC(=O)[C@@H](O)CCN)O[C@H](CO)[C@H]1O (stereo partly drawn) [ABX5043, Tobra-AHB-F-Gua (R) morpholin-2-yl methyl] | 0.25 (≈ 0.178 µg/mL) | –
12 | NCCC(O)C(=O)NC1CC(N)C(OC2OC(CN)C(O)C(O)C2N)C(F)C1OC1OC(CO)C(O)C(N)C1O (stereo not shown) [ABX4007, KanaB-AHB-F] | – | 2 to 4
13 | N=C(NCc1cnc[nH]1)NC1[C@@H](O)C(OC2[C@@H](F)[C@H](O[C@H]3OC(CN)[C@@H](O)CC3N)C(N)C[C@H]2NC(=O)[C@@H](O)CCN)O[C@H](CO)[C@H]1O (stereo partly shown) [ABX5050, Tobra-AHB-F-Gua imidazol-5-yl methyl] | 1 (≈ 0.693 µg/mL) | –
14 | NCCC(O)C(=O)NC1CC(N)C(OC2OC(CN)C(O)C(O)C2O)C(F)C1OC1OC(CO)C(O)C(N)C1O (stereo not drawn) [ABX3005, 3′Epi-KanaA-AHB-F] | – | 4 (≈ 2.35 µg/mL)
15 | N=C(N)NC1[C@@H](O)C(OC2[C@@H](F)[C@H](O[C@H]3OC(CN)[C@@H](O)[C@H](O)C3N)C(N)C[C@H]2NC(=O)[C@@H](O)CCN)O[C@H](CO)[C@H]1O (stereo partly drawn) [ABX4004, 3′epi-KanaB-AHB-F-Gua] | – | 2 (≈ 1.26 µg/mL)
16 | NCCC(O)C(=O)NC1CC(N)C(OC2OC(CN)C(O)C(O)C2N)C(O)C1OC1OC(CO)C(O)C(N)C1O (stereo not shown) [ABX4001, KanaB-AHB] | – | 4 to 8
17 | N=C(N)NC1C(O)[C@@H](CO)OC(OC2C(F)[C@H](O[C@H]3OC(CN)[C@@H](O)CC3N)C(N)C[C@H]2NC(=O)[C@@H](O)CCN)[C@@H]1O (stereo partly shown) [ABX5006, Tobra-AHB-F-Gua] | < 0.25 | –
18 | N=C(NCC1CCOC1)NC1[C@@H](O)C(OC2[C@@H](F)[C@H](O[C@H]3OC(CN)[C@@H](O)CC3N)C(N)C[C@H]2NC(=O)[C@@H](O)CCN)O[C@H](CO)[C@H]1O (stereo partly shown) [ABX5051, Tobra-AHB-F-Gua tetrahydrofuran-3-yl methyl] | 0.5 (≈ 0.348 µg/mL) | –
19 | NCC[C@H](O)C(=O)N[C@@H]1CC(N)[C@@H](O[C@H]2OC(CN)[C@@H](O)[C@@H](O)C2N)[C@H](F)C1OC1O[C@H](CO)[C@@H](O)C(N)[C@H]1O (stereo partly drawn) [ABX4003, 3′Epi-KanaB-AHB-F] | – | 8 (≈ 4.69 µg/mL)
20 | N=C(NCC1CC1)NC1[C@@H](O)C(OC2[C@@H](F)[C@H](O[C@H]3OC(CN)[C@@H](O)CC3N)C(N)C[C@H]2NC(=O)[C@@H](O)CCN)O[C@H](CO)[C@H]1O (stereo partly shown) [ABX5027, Tobra-AHB-F-Gua cyclopropylmethyl] | 0.5 (≈ 0.333 µg/mL) | –
21 | N=C(NC[C@@H]1CCNC1)NC1[C@@H](O)C(OC2[C@@H](F)[C@H](O[C@H]3OC(CN)[C@@H](O)CC3N)C(N)C[C@H]2NC(=O)[C@@H](O)CCN)O[C@H](CO)[C@H]1O (stereo partly drawn) [ABX5039, Tobra-AHB-F-Gua (R) pyrrolidine-3-ylmethyl] | 0.25 (≈ 0.174 µg/mL) | –
22 | CNCCNC(=N)NC1[C@@H](O)C(OC2[C@@H](F)[C@H](O[C@H]3OC(CN)[C@@H](O)CC3N)C(N)C[C@H]2NC(=O)[C@@H](O)CCN)O[C@H](CO)[C@H]1O (stereo partly shown) [ABX5038, Tobra-AHB-F-Gua 2-(methylamino)ethyl] | 0.25 (≈ 0.167 µg/mL) | –
23 | N=C(NCc1ccncc1)NC1[C@@H](O)C(OC2[C@@H](F)[C@H](O[C@H]3OC(CN)[C@@H](O)CC3N)C(N)C[C@H]2NC(=O)[C@@H](O)CCN)O[C@H](CO)[C@H]1O (stereo partly shown) [ABX5048, Tobra-AHB-F-Gua pyridin-4-yl methyl] | 0.5 (≈ 0.352 µg/mL) | –
24 | N=C(N)NC1[C@@H](O)C(OC2[C@@H](O)[C@H](O[C@H]3OC(CN)[C@@H](O)CC3N)C(N)C[C@H]2NC(=O)[C@@H](O)CCN)O[C@H](CO)[C@H]1O (stereo partly shown) [ABX5005, Tobra-AHB-Gua] | – | 2 (≈ 1.22 µg/mL)
25 | N=C(NCCCN)NC1[C@@H](O)C(OC2[C@@H](F)[C@H](O[C@H]3OC(CN)[C@@H](O)CC3N)C(N)C[C@H]2NC(=O)[C@@H](O)CCN)O[C@H](CO)[C@H]1O (stereo partly shown) [ABX5030, Tobra-AHB-F-Gua-3-amino-propyl] | 0.25 to 0.5 (≈ 0.167 to 0.335 µg/mL) | –
